Values of other authors, collected in US7208580B2, “Atomic structure of the hemalbumin complex and its use in designing therapeutic compounds” (New Century Pharmaceuticals, Inc., priority 2002, dated 2007).

Molecular target: human albumin (Homo sapiens, UniProt P02768)
Sequence (P02768 25-609): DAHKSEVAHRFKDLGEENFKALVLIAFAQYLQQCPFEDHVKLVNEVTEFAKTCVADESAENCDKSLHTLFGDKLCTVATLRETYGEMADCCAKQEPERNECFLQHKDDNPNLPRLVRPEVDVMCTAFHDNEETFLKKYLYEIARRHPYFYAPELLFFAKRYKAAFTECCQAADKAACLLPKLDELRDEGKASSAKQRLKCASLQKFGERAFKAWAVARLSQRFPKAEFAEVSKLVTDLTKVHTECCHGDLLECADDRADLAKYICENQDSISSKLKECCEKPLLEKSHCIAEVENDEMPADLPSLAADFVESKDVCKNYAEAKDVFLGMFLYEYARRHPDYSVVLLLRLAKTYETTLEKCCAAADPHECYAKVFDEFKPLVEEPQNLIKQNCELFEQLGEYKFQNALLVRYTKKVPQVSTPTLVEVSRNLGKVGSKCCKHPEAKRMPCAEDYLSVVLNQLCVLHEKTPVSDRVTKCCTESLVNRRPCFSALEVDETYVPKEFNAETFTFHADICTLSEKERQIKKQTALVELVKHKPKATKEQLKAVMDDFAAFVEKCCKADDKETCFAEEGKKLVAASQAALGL

C=CC1=C(C)c2cc3[nH]c(cc4nc(cc5[nH]c(cc1n2)c(C)c5CCC(=O)O)C(CCC(=O)O)=C4C)c(C)c3C=C [protoporphyrin, Fe^III-Protoporphyrin-IX]
binding constants for protoporphyrin at the specialized high affinity site (albumins from primates, printed as '1×10^8 Ka'): ~1×10^8

Fe^III Protoporphyrin-IX (Cl) [Hemin]
KA, single high affinity site (hemin binding to human albumin, association constant from reference (9)): 1.1e+08 M⁻¹
